Entries after “also recorded” stand apart in the source; their conditions may differ.
How the values were obtained:
non-NMDA receptors [1] = experiment: Inward membrane current elicited by the compound alone in Xenopus oocytes injected with rat hippocampus poly(A)+ RNA (agonist action); assay type: cell-based; conditions: antagonist 1 μM
Method: (§1) 50 nl of the poly(A)^+ RNA (1 μg/μl) isolated was injected into an oocyte by a micromanipulator and the oocytes were cultured in a Barth's medium (88 mM NaCl, 1 mM KCl, 2.4 mM NaHCO3, 0.3 mM Ca(NO3)2, 0.41 mM CaCl2, 0.82 mM MgSO4, 10 μg/ml sodium penicillin, 10 μg/ml streptomycin sulfate, and 15 mM HEPES) at 19° C. for three to four days and used for measurement.
(§2) The above-mentioned oocyte was set in a chamber under perfusion of frog Ringer's solution (120 mM NaCl, 2 mM KCl, 1.8 mM CaCl2, and 5 mM HEPES, pH 7.4) and microelectrodes were inserted into oocytes and the membrane potential was fixed at -70 mV. Subsequently, another frog Ringer's solution in which AMPA (100 μM) or kainate(KA) (100 μM) both of which are agonists for non-NMDA receptors was dissolved was substituted for the original Ringer's solution and then an inward membrane current was measured.

non-NMDA receptors [2] = experiment: Potentiation of AMPA- or kainic acid-elicited membrane current in Xenopus oocytes injected with rat hippocampus poly(A)+ RNA (two-electrode voltage clamp)
Method: By use of an improved method of Masu's Xenopus oocyte expression system [Nature 329,836 (1987)] an electrophysiological analysis was conducted.
(1) Preparation of poly(A)^+ RNA isolated from a rat hippocampus.
A hippocampus region was isolated from a rat and homogenized in the presence of […] and total RNA was extracted from the hippocampus by means of the ultracentrifugating method utilizing cesium chloride. Poly(A)^+ RNA was refined from the obtained RNA by use of oligo dT cellulose column.
(2) Expression of protein in Xenopus oocytes
as §1
(3) Electrophysiological and pharmacological experiment by two-electrodes voltage clamp method.
as §2
The membrane potential was fixed at -70 mV. The response was defined as one which was generated on the specimen under perfusion of frog Ringer's solution in which AMPA or kainic acid both of which are agonists for non-NMDA receptors was dissolved until a final concentration of 100 μM. The responses are shown as relative values which were measured on the oocytes under perfusion of frog Ringer's solution in which the compound of the invention and anilacetum which is a potentiator for non-NMDA receptors were dissolved until a concentration of 50 μM with AMPA or kainic acid.

[3] = 50 μM test substance with 100 μM AMPA, membrane potential -70 mV, control (AMPA alone) = 1
[4] = 50 μM test substance with 100 μM kainic acid, membrane potential -70 mV, control (kainic acid alone) = 1

Row | SMILES | Potentiation (relative values with a control as 1), AMPA (non-NMDA receptors [2]; xenopus oocytes, 50 µM) | Potentiation (relative values with a control as 1), kainic acid (non-NMDA receptors [2]; xenopus oocytes, 50 µM) | further results
1 | N#Cc1cc2[nH]c(=O)c(=O)[nH]c2cc1[N+](=O)[O-] [CNQX, reference compound] |  |  | Inhibition of inward membrane current elicited by the compound of the invention alone (non-NMDA receptors [1]): inhibited; Inhibition of inward membrane current elicited by AMPA (100 μM) or kainate (100 μM) (non-NMDA receptors [2]; antagonist 1 μM, -70 mV): inhibited
2 | O=C(O)COc1c(F)cc(SCCNS(=O)(=O)c2ccc(Cl)cc2)cc1F [Compound 68, 2,6-Difluoro-4-[2-(4-chlorophenylsulfonylamino)ethylthio]phenoxyacetic acid] | 1.5 | 1.6 | 
3 | O=C(O)COc1ccc(SCCNS(=O)(=O)c2ccc(Br)cc2)cc1F [Compound 106, 2-Fluoro-4-[2-(4-bromophenylsulfonylamino)ethylthio]phenoxyacetic acid] | 1.4 | 1.5 | 
4 | COC(=O)COc1c(F)cc(SCCNS(=O)(=O)c2ccc(Cl)cc2)cc1F [Compound 128, methyl 4-[2-(4-chlorophenylsulfonylamino)ethylthio]-2,6-difluorophenoxyacetate] | 1.5 | 1.6 | 
5 | NC(=O)COc1c(F)cc(SCCNS(=O)(=O)c2ccccc2)cc1F [Compound 139, 4-[2-(Phenylsulfonylamino)ethylthio]-2,6-difluorophenoxyacetamide] |  |  | Potentiation of the non-NMDA receptor response (membrane current elicited by kainic acid and AMPA), in words (non-NMDA receptors [2]; 50 μM compound with 100 μM AMPA or kainic acid): definitely active; also recorded: especially strong action; Potentiation (relative values with a control as 1), AMPA (non-NMDA receptors [2]; [3]): 23.2; Potentiation (relative values with a control as 1), kainic acid (non-NMDA receptors [2]; [4]): 2.8
6 | NC(=O)COc1ccc(SCCNS(=O)(=O)c2ccccc2)cc1F [Compound 142, 4-[2-(Phenylsulfonylamino)ethylthio]-2-fluorophenoxyacetamide] | 1.6 | 1.5 | 
7 | CN(C)C(=O)COc1ccc(SCCNS(=O)(=O)c2ccccc2)cc1F [Compound 143, N,N-Dimethyl-4-[2-(phenylsulfonylamino)ethylthio]-2-fluorophenoxyacetamide] | 1.4 | 1.6 | 
8 | NC(=O)Cc1ccc(SCCNS(=O)(=O)c2ccccc2)cc1 [Compound 145, 4-[2-(phenylsulfonylamino)ethylthio]phenylacetamide] | 1.3 | 1.5 | 
9 | C[C@]12N[C@H](Cc3ccccc31)c1ccccc12 [MK-801] |  |  | Inhibition of inward membrane current elicited by the compound of the invention alone (non-NMDA receptors [1]): not inhibited
10 | COc1ccc(C(=O)N2CCCC2=O)cc1 [anilacetum, reference compound] |  |  | Potentiation (relative values with a control as 1), AMPA (non-NMDA receptors [2]; [3]): does not potentiate; Potentiation (relative values with a control as 1), AMPA (non-NMDA receptors [2]; 50 μM test substance with 100 μM AMPA, membrane potential -70 mV, control (AMPA alone) = 1, 50 µM): 1; Potentiation (relative values with a control as 1), kainic acid (non-NMDA receptors [2]; [4]): does not potentiate; Potentiation (relative values with a control as 1), kainic acid (non-NMDA receptors [2]; 50 μM test substance with 100 μM kainic acid, membrane potential -70 mV, control (kainic acid alone) = 1, 50 µM): 1; Effect on response elicited by AMPA (non-NMDA receptors [2]; 1 mM test substance): doubles; Effect on response elicited by kainic acid (non-NMDA receptors [2]; 1 mM test substance (20 times in concentration)): does not affect

Source: patent publication US5955505A, “Glutamic acid receptor agonist” (Nippon Suisan Kaisha, Ltd., priority 1995, dated 1999)
